The source of these data is patent US11130756B2, “[1,2,4]Triazolo[4,3-A]pyridinyl substituted indole compounds” (BRISTOL-MYERS SQUIBB COMPANY, priority 2017, dated 2021).

The structures appear in SMILES notation. pIC50: −log10 of the molar value.

A word on the pIC50: it is the negative decadic logarithm of the IC50, by convention in mol/L.

Common to all, as to assay type: cell-based
The target of test [1] is T1, human TLR8 (Homo sapiens, UniProt Q9NR97).
T1 construct: host or cells: HEK-Blue cells
T1 sequence (Q9NR97 27-1041): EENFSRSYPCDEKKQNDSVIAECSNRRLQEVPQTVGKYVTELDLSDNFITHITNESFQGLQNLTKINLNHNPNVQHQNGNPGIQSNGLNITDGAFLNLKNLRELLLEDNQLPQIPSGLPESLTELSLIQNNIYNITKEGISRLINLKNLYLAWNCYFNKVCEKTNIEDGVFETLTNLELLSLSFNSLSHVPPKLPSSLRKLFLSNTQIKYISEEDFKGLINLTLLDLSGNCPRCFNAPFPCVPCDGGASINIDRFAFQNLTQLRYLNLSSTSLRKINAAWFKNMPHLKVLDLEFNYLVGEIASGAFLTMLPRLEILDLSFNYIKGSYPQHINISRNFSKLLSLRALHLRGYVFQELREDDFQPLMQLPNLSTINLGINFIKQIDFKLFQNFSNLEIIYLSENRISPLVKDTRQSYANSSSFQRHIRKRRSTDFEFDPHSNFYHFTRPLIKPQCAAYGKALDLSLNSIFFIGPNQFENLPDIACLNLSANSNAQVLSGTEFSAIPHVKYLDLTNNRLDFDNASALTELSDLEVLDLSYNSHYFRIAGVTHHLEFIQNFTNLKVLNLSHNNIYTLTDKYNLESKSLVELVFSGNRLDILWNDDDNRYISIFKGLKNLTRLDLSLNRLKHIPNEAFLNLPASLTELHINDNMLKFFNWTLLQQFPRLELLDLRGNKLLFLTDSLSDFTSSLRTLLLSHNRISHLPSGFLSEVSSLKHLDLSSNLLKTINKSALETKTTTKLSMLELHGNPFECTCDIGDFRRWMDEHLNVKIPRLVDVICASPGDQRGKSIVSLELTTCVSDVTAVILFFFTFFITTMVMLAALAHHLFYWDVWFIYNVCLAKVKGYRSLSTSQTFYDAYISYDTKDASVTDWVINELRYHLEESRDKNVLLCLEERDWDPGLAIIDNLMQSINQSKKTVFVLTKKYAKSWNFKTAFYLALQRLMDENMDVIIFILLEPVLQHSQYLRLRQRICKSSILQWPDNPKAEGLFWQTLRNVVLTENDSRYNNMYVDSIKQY
The experiment in a line: TLR8 inhibition reporter assay (HEK-Blue, SEAP). As to conditions: HEK-Blue cells overexpressing human TLR8, R848 15.9 μM, 22 hour incubation. The gist of the method: (§1)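 HEK-Blue cells overexpressing human TLR7, TLR8 or TLR9 carry a SEAP reporter driven by NF-κB/AP-1 sites. Compounds (0.05 nM–50 μM) were preincubated 30 min at room temperature, then cells were stimulated with gardiquimod 7.5 μM (TLR7), R848 15.9 μM (TLR8) or ODN2006 5 nM (TLR9) for 22 h at 37 °C.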
Background: A reporter such as luciferase makes a cellular process visible.

The target of test [2] is T2, human TLR7 (Homo sapiens, UniProt Q9NYK1).
T2 construct: host or cells: HEK-Blue cells
T2 sequence (Q9NYK1 27-1049): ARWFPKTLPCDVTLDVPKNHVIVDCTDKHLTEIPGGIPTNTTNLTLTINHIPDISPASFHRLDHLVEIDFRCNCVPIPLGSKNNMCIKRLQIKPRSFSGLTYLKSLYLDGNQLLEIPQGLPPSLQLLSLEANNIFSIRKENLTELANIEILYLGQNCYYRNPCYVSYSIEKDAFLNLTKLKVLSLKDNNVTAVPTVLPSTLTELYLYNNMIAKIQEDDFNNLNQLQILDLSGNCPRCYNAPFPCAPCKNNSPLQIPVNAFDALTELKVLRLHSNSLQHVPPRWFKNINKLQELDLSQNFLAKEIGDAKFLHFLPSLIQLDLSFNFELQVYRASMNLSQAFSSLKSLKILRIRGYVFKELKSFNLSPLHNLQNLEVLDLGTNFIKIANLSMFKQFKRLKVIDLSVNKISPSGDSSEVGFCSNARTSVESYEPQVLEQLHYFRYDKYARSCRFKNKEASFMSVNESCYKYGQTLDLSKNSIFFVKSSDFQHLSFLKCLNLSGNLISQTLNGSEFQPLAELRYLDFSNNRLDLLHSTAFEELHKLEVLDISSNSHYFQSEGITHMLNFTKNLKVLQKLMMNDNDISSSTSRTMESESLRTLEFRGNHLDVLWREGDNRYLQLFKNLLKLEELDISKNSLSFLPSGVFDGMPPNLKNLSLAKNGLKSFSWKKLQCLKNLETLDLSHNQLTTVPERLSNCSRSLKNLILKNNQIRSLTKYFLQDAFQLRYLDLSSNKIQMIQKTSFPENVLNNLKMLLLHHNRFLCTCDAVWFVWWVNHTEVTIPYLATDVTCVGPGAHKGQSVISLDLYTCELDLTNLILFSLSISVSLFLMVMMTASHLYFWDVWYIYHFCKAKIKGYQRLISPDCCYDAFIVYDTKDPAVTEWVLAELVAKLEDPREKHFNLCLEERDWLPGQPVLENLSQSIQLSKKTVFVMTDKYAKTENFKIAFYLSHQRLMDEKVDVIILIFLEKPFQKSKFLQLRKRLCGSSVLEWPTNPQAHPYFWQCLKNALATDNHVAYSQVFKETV
The experiment in a line: TLR7 inhibition reporter assay (HEK-Blue, SEAP). The settings on record: HEK-Blue cells overexpressing human TLR7, gardiquimod 7.5 μM, 22 hour incubation. The essentials: as §1

Test [3] concerns the target T3, human TLR9 (Homo sapiens, UniProt Q9NR96).
T3 construct: host or cells: HEK-Blue cells
T3 sequence (Q9NR96 26-1032): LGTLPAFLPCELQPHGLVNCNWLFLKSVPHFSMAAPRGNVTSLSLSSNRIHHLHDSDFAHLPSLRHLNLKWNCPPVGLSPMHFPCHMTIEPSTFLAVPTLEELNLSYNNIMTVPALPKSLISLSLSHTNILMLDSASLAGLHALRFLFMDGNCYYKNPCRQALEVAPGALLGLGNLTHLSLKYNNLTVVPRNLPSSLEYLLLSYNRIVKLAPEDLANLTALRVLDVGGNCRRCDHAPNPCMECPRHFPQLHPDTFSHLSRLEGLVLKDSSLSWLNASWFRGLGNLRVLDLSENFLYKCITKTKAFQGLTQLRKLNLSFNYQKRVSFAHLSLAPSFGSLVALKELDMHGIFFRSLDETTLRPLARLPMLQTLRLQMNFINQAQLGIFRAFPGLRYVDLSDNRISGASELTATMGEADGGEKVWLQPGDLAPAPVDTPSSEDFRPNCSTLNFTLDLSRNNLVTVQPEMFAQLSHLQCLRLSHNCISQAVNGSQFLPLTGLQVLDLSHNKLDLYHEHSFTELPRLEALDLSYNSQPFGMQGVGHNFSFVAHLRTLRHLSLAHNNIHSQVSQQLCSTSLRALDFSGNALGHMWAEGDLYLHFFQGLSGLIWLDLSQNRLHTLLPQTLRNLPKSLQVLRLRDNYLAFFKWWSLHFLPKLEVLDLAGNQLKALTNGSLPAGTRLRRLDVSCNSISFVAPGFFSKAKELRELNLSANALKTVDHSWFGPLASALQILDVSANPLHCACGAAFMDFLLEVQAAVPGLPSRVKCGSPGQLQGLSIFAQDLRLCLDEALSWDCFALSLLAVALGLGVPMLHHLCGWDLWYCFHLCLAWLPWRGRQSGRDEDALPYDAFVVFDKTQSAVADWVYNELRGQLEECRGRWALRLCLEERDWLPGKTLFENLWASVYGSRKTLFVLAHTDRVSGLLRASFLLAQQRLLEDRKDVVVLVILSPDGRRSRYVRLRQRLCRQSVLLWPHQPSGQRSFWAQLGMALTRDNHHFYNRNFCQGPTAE
The experiment in a line: TLR9 inhibition reporter assay (HEK-Blue, SEAP). As to conditions: HEK-Blue cells overexpressing human TLR9, ODN2006 5 nM, 22 hour incubation. The essentials:
as §1

For the molecule `Cc1cc(-c2[nH]c3ccc(C4CCN(CCS(C)(=O)=O)CC4)cc3c2C(C)C)cn2c(C)nnc12` [Example 32, 6-(3-isopropyl-5-(1-(2-(methylsulfonyl)ethyl)piperidin-4-yl)-1H-indol-2-yl)-3,8-dimethyl-[1,2,4]triazolo[4,3-a]pyridine], the negative logarithm of the IC50 (pIC50) in test [1] is 8.68; in test [2] it was 7.95; in test [3] it was 5.43.
The corresponding values for `Cc1cc(-c2[nH]c3ccc(C4CCN(Cc5ncn(C)n5)CC4)cc3c2C(C)C)cn2c(C)nnc12` [Example 33, 6-(3-isopropyl-5-(1-((1-methyl-1H-1,2,4-triazol-3-yl)methyl)piperidin-4-yl)-1H-indol-2-yl)-3,8-dimethyl-[1,2,4]triazolo[4,3-a]pyridine] are 8.10, 7.53 and 5.29.
For `Cc1cc(-c2[nH]c3ccc(C4CCN(CC(=O)N(C)C)CC4)cc3c2C(C)C)cn2c(C)nnc12` [Example 34, 2-(4-(2-(3,8-dimethyl-[1,2,4]triazolo[4,3-a]pyridin-6-yl)-3-isopropyl-1H-indol-5-yl)piperidin-1-yl)-N,N-dimethylacetamide] the same measures were 8.34, 8.04 and 5.84.
For `Cc1cc(-c2[nH]c3ccc(C4CCN(CCS(C)(=O)=O)CC4)cc3c2C(C)C)cn2cnnc12` [Example 35, 6-(3-isopropyl-5-(1-(2-(methylsulfonyl)ethyl)piperidin-4-yl)-1H-indol-2-yl)-8-methyl-[1,2,4] triazolo[4,3-a]pyridine] the same measures were 8.52, 9.15 and 5.23.
For the molecule `Cc1cc(-c2[nH]c3ccc(C4CCN(CCCC(F)(F)F)CC4)cc3c2C(C)C)cn2cnnc12` [Example 36, 6-(3-isopropyl-5-(1-(4,4,4-trifluorobutyl)piperidin-4-yl)-1H-indol-2-yl)-8-methyl-[1,2,4]triazolo[4,3-a]pyridine], the values for the pIC50 in test [1], in test [2] and in test [3] were 8.35, 8.92 and 6.04, respectively.
On to `Cc1cc(-c2[nH]c3ccc(C4CCN(CC#N)CC4)cc3c2C(C)C)cn2cnnc12` [Example 37, 2-(4-(3-isopropyl-2-(8-methyl-[1,2,4]triazolo[4,3-a]pyridin-6-yl)-1H-indol-5-yl)piperidin-1-yl)acetonitrile], for which the values for the pIC50 in test [1], in test [2] and in test [3] were 8.19, 9.52 and 5.82, respectively.
The corresponding values for `COCc1nnc2ccc(-c3[nH]c4ccc(C5CCN(CC(=O)N(C)C)CC5)cc4c3C(C)C)cn12` [Example 38, 2-(4-(3-isopropyl-2-(3-(methoxymethyl)-[1,2,4]triazolo[4,3-a]pyridin-6-yl)-1H-indol-5-yl)piperidin-1-yl)-N,N-dimethylacetamide] are 6.40, 6.55 and 5.51.
The corresponding values for `Cc1c(-c2[nH]c3ccc(C4CCN(CC(=O)N(C)C)CC4)cc3c2C(C)C)cn2cnnc2c1C` [Example 39, 2-(4-(2-(7,8-dimethyl-[1,2,4]triazolo [4,3-a]pyridin-6-yl)-3-isopropyl-1H-indol-5-yl)piperidin-1-yl)-N,N-dimethylacetamide] are 8.02, 8.72 and 5.37.
The corresponding values for `Cc1cc(-c2[nH]c3ccc(C4CCN(Cc5ncn(C)n5)CC4)cc3c2C(C)C)c(C)n2cnnc12` [Example 40, 6-(3-isopropyl-5-(1-((1-methyl-1H-1,2,4-triazol-3-yl)methyl)piperidin-4-yl)-1H-indol-2-yl)-5,8-dimethyl-[1,2,4]triazolo[4,3-a]pyridine] are 8.35, 6.98 and 5.10.
Consider `Cc1cc(-c2[nH]c3ccc(C4CCN(CCCC(F)(F)F)CC4)cc3c2C(C)C)c(C)n2cnnc12` [Example 41, 6-(3-isopropyl-5-(1-(4,4,4-trifluorobutyl)piperidin-4-yl)-1H-indol-2-yl)-5,8-dimethyl-[1,2,4]triazolo[4,3-a]pyridine], for which the negative-log IC50 (pIC50) in test [1] was 8.48; in test [2] it was 7.59; in test [3], 5.55.
The corresponding values for `Cc1cc(-c2[nH]c3ccc(C4CCN(CC(=O)N(C)C)CC4)cc3c2C(C)C)c(C)n2cnnc12` [Example 42, 2-(4-(2-(5,8-dimethyl-[1,2,4]triazolo[4,3-a]pyridin-6-yl)-3-isopropyl-1H-indol-5-yl)piperidin-1-yl)-N,N-dimethylacetamide] are 8.22, 7.49 and 5.43.
As for `Cc1c(-c2[nH]c3ccc(C4CCN(CCS(C)(=O)=O)CC4)cc3c2C(C)C)cn2cnnc2c1C` [Example 43, 6-(3-isopropyl-5-(1-(2-(methylsulfonyl)ethyl)piperidin-4-yl)-1H-indol-2-yl)-7,8-dimethyl-[1,2,4]triazolo[4,3-a]pyridine], the pIC50 is 8.49 in test [1], 8.74 in test [2] and 5.18 in test [3].
